“Also recorded” adds a separate entry of the source.
Columns and labels:
isolated rat myocytes = assay: Nifedipine and KB-R7943 sensitive 45Ca influx; assay type: cell-based
Method: The reaction was stopped by adding 5 mM EGTA on ice and cells were washed and spun at 4000 rpm for 2 min (×3) to remove extracellular ^45Ca. Net intracellular counts per minute (cpm) of ^45Ca for each sample was determined by using a β-scintillation counter and the concentration of ^45Ca was calculated as described previously (20).

[1] = tested on: isolated rat cardiac myocytes; assay: Sodium Green fluorescence (intracellular Na+); assay type: cell-based
Method: The final concentration of Sodium Green in each sample tube was 10 μM during the incubation. The myocytes were then transferred to 96-well plates (Nunc) and the measurement of Sodium Green fluorescence was carried out by excitation at 485 nm and quantifying emission at 535 nm using a VICTOR-II multilabel counter (PerkinElmer Life Sciences).

[2] = tested on: Spontaneously Hypertensive Heart Failure (SHHF) rats; assay: Immunization of late-stage SHHF rats, heart function by echo; assay type: in vivo; settings: 14 months old SHHF rats, control rat died
Method: Studies were also conducted on the ability of NKA alpha subunit peptides to induce a therapeutic immune response in late-stage Spontaneously Hypertensive Heart Failure (SHHF) rats. The SHHF rats used for this study were 14 months old with late-stage heart failure. The heart function was measured by echo and expressed as percent of fractional shortening (FS %). The initial heart functions were 26.0% and 28.0% for control SHHF rat and the one with immunization, respectively. […] The peptide with which the rats were immunized has the following amino acid sequence […] (SEQ ID NO:7), as disclosed in U.S. Pat. No. 7,754,210.

[3] = tested on: isolated rat cardiac myocytes; assay: Rat myocyte contractility (cell shortening); assay type: cell-based; settings: 0.1 mM PB2948 + 0.5 μM JY2948
Source text: Rat ventricular myocytes were isolated as described (18). The contraction amplitude was indexed by the percentage shortening of cell length (19).

NKA β1 subunit = assay: Specificity analysis by Western blotting; assay type: binding, pig, dog, rat; settings: PB2948
Method: Samples of purified rat and dog NKA, along with SDS-stripped pig α1 and β1 subunits (30 μg each) were mixed with electrophoresis sample buffer separately, boiled for 5 min, and loaded on freshly made 7.5% SDS-PAGE gel. Following electrophoresis, the samples were transferred from the SDS gel to a nitrocellulose membrane (0.45 μm). […] The membranes were then washed and incubated with secondary antibody (1:7500) for 1 hour. The color was then developed for visual analysis.

## N=C(N)SCCc1ccc(OCc2ccc([N+](=O)[O-])cc2)cc1 [KB-R7943]
Isolated rat myocytes; KB-R7943 (5 μM)
  effect on JY2948-induced 45Ca influx: failed to inhibit
Isolated rat myocytes; KB-R7943 alone (504 [sic])
  changes of 45Ca concentration compared with control cell background: No significant changes
[1]; 5 μM KB-R7943 alone, control 100
  Sodium Green fluorescence intensity: 99±10%
[1]; 30 μM KB-R7943 alone, control 100
  Sodium Green fluorescence intensity: 102±7.0%

## C[C@@H]1O[C@@H](O[C@H]2C[C@@H](O)[C@]3(CO)[C@H]4[C@H](O)C[C@]5(C)[C@@H](C6=CC(=O)OC6)CC[C@]5(O)[C@@H]4CC[C@]3(O)C2)[C@H](O)[C@H](O)[C@H]1O [ouabain]
Isolated rat myocytes
  ouabain-induced 45Ca influx relative to JY2948/β1 subunit-induced influx: 4.4 fold
  share of ouabain-induced 45Ca influx through LTCC: approximately 40%
  share of ouabain-induced 45Ca influx through NCX: ~60%
Isolated rat myocytes; ouabain 2.5 mM alone
  45Ca influx: 330±6.4 pCi
Isolated rat myocytes; ouabain + 10 μM nifedipine
  nifedipine-resistant 45Ca influx: 188±78 pCi
Isolated rat myocytes; ouabain + both nifedipine and KB-R7943
  ouabain-induced 45Ca influx: completely impeded; also recorded: completely abolished
[1]; ouabain (2.5 mM)
  Sodium Green fluorescence intensity: 136±13%
[1]; ouabain + 5 μM KB-R7943
  Sodium Green fluorescence intensity: 153±19%
[1]; ouabain + 30 μM KB-R7943
  Sodium Green fluorescence intensity: 151±23%

## DVEDSYGQQWTYEQR (chemically-synthesized antigen) [SEQ ID NO:7, NKA alpha subunit peptide used to immunize SHHF rats, disclosed in U.S. Pat. No. 7,754,210]
[2]
  late-stage SHHF rat cardiac function (fractional shortening, FS %): significantly improved

## KERGEFNHERGER (listed as Rattus norvegicus) [PB2948]
[3]
  JY2948-induced positive inotropic effect in the presence of peptide blocker: completely eliminated
NKA β1 subunit
  interaction between JY2948 and native β1 subunit in presence of peptide blocker: completely abolished

From patent US10214583B2, “Sodium pump antibody agonists and methods of treating heart disease using the same” (priority 2011, dated 2019)
